# From patent US20250230193A1, “CYCLIC COMPOUND HAVING SELECTIVE KRAS INHIBITORY EFFECT ON HRAS AND NRAS” (CHUGAI SEIYAKU KABUSHIKI KAISHA, priority 2022, published 2025)
# Tests used:
# [1] = target: GDP-bound NRAS wild-type protein (Homo sapiens, UniProt P01111); experiment: Binding to NRAS by surface plasmon resonance (SPR), Single Cycle Kinetics; details: SPR, GDP-bound NRAS wild-type vs GDP-bound KRAS wild-type
# [2] = target: GDP-bound HRAS wild-type protein (Homo sapiens, UniProt P01112); experiment: Binding to HRAS by surface plasmon resonance (SPR), Single Cycle Kinetics; details: SPR, GDP-bound HRAS wild-type vs GDP-bound KRAS wild-type
# Sequence of GDP-bound HRAS wild-type protein (P01112 whole entry): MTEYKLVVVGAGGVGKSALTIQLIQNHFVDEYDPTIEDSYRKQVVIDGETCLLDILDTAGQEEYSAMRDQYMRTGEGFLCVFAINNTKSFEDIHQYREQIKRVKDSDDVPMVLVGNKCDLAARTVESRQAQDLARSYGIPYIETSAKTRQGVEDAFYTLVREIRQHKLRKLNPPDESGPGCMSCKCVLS
# Sequence of GDP-bound NRAS wild-type protein (P01111 whole entry): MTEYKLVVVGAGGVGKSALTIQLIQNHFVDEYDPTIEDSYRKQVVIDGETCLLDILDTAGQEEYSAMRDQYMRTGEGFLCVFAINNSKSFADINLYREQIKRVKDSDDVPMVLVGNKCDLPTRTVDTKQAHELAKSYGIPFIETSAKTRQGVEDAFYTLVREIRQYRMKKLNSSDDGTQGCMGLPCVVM
SMILES,NRAS/KRAS (ratio of KD value with respect to NRAS to KD value with respect to KRAS) [1],HRAS/KRAS (ratio of KD value with respect to HRAS to KD value with respect to KRAS) [2]
CCCOC[C@H]1C(=O)N[C@@H]([C@@H](C)CC)C(=O)N(C)CC(=O)N(C)[C@H]2C/C=C\CCN(C2=O)[C@@H](Cc2ccc(C)cc2)C(=O)N(C)CC(=O)N[C@@H](CCc2ccc(C(F)(F)F)c(Cl)c2)C(=O)N2C[C@H](CC)C[C@H]2C(=O)NC2(CC(C)(C)C2)C(=O)N(C)[C@@H](C2CCCC2)C(=O)N(C)[C@H](C(=O)N(C)C)CC(=O)N1C [PP2235],A (a compound having 10 or more and less than 20 is denoted as A),A (a compound having 10 or more and less than 20 is denoted as A)
CCC[C@H]1C(=O)N[C@@H]([C@@H](C)CC)C(=O)N(C)CC(=O)N(C)[C@H]2C/C=C\CCN(C2=O)[C@@H](Cc2ccc(C)cc2)C(=O)N(C)CC(=O)N[C@@H](CCc2ccc(C(F)(F)F)c(Cl)c2)C(=O)N2C[C@H](CC)C[C@H]2C(=O)NC2(CCC2)C(=O)N(C)[C@@H](C2CCCC2)C(=O)N(C)[C@H](C(=O)N(C)C)CC(=O)N1C [PP2237],A (a compound having 10 or more and less than 20 is denoted as A),A (a compound having 10 or more and less than 20 is denoted as A)
CCC[C@@H]1C[C@H]2C(=O)NC3(CCC3)C(=O)N(C)[C@@H](C3CCCC3)C(=O)N(C)[C@H](C(=O)N(C)C)CC(=O)N(C)[C@@H](CCC)C(=O)N[C@@H]([C@@H](C)CC)C(=O)N(C)CC(=O)N(C)[C@H]3C/C=C\CCN(C3=O)[C@@H](Cc3ccc(C)cc3)C(=O)N(C)CC(=O)N[C@@H](CCc3ccc(C(F)(F)F)c(Cl)c3)C(=O)N2C1 [PP2238],A (a compound having 10 or more and less than 20 is denoted as A),A (a compound having 10 or more and less than 20 is denoted as A)
CCC[C@H]1C(=O)N[C@@H](C2CCC2)C(=O)N(C)CC(=O)N(C)[C@H]2C/C=C\CCN(C2=O)[C@@H](Cc2ccc(C)cc2)C(=O)N(C)CC(=O)N[C@@H](CCc2ccc(C(F)(F)F)c(F)c2)C(=O)N2C[C@H](OCC)C[C@H]2C(=O)NC2(CC(C)(C)C2)C(=O)N(C)[C@@H](C2CCC2)C(=O)N(C)[C@H](C(=O)N(C)C)CC(=O)N1C [PP2242],A (a compound having 10 or more and less than 20 is denoted as A),A (a compound having 10 or more and less than 20 is denoted as A)
CCO[C@@H]1C[C@H]2C(=O)NC3(CC(C)(C)C3)C(=O)N(C)[C@@H](C3CCCC3)C(=O)N(C)[C@H](C(=O)N(C)CC)CC(=O)N(C)[C@H]3CCCCCc4ccc(cc4)C[C@@H](C(=O)N(C)CC(=O)N[C@@H](CCc4ccc(C(F)(F)F)c(OC)c4)C(=O)N2C1)N1CC/C=C\C[C@@H](C1=O)N(C)C(=O)CN(C)C(=O)[C@H]([C@@H](C)CC)NC3=O [PP2259],A (a compound having 10 or more and less than 20 is denoted as A),B (a compound having 3 or more and less than 10 is denoted as B)
"CCO[C@@H]1C[C@H]2C(=O)NC3(CC(C)(C)C3)C(=O)N(C)[C@@H](C3CCCC3)C(=O)N(C)[C@H](C(=O)N(C)CC)CC(=O)N(C)[C@H]3CCCCCCc4ccc(cc4)C[C@@H](C(=O)N(C)CC(=O)N[C@@H](CCc4ccc(C(F)(F)F)c(OC)c4)C(=O)N2C1)N1CC/C=C\C[C@@H](C1=O)N(C)C(=O)CN(C)C(=O)[C@H]([C@@H](C)CC)NC3=O [PP2260, (1S,7S,11R,13S,19S,22S,26S,29S,35S,37Z)-19-cyclopentyl-11-ethoxy-N-ethyl-7-[2-[3-methoxy-4-(trifluoromethyl)phenyl]ethyl]-N,3,3′,3′,18,21,25,31,34-nonamethyl-29-[(1S)-1-methylpropyl]-2,5,8,14,17,20,24,27,30,33,55-undecaoxo-spiro[3,6,9,15,18,21,25,28,31,34,41-undecazapentacyclo[24.15.11.2^43,46.1^35,41.0^9,13]pentapentaconta-37,43(54),44,46(53)-tetraene-16,1′-cyclobutane]-22-carboxamide]",A (a compound having 10 or more and less than 20 is denoted as A),A (a compound having 10 or more and less than 20 is denoted as A)
CCO[C@@H]1C[C@H]2C(=O)NC3(CCC3)C(=O)N(C)[C@@H](C3CCCC3)C(=O)N(C)[C@H](C(=O)N(C)C)CC(=O)N(C)[C@H]3CCCCCc4ccc(cc4)C[C@@H](C(=O)N(C)CC(=O)N[C@@H](CCc4cc(F)c(C(F)(F)F)c(F)c4)C(=O)N2C1)N1CC/C=C\C[C@@H](C1=O)N(C)C(=O)CN(C)C(=O)[C@H]([C@@H](C)CC)NC3=O [PP2261],A (a compound having 10 or more and less than 20 is denoted as A),A (a compound having 10 or more and less than 20 is denoted as A)
CCO[C@@H]1C[C@H]2C(=O)NC3(CCC3)C(=O)N(C)[C@@H](C3CCCC3)C(=O)N(C)[C@H](C(=O)N(C)C)CC(=O)N(C)[C@H]3CCCCCc4ccc(cc4)C[C@@H](C(=O)N(C)CC(=O)N[C@@H](CCc4ccc(C(F)(F)F)c(OC)c4)C(=O)N2C1)N1CC/C=C\C[C@@H](C1=O)N(C)C(=O)CN(C)C(=O)[C@H]([C@@H](C)CC)NC3=O [PP2262],A (a compound having 10 or more and less than 20 is denoted as A),B (a compound having 3 or more and less than 10 is denoted as B)
CCO[C@@H]1C[C@H]2C(=O)NC3(CCC3)C(=O)N(C)[C@@H](C3CCCC3)C(=O)N(C)[C@H](C(=O)N(C)CC)CC(=O)N(C)[C@H]3CCCCCCc4ccc(cc4)C[C@@H](C(=O)N(C)CC(=O)N[C@@H](CCc4ccc(C(F)(F)F)c(OC)c4)C(=O)N2C1)N1CC/C=C\C[C@@H](C1=O)N(C)C(=O)CN(C)C(=O)[C@H]([C@@H](C)CC)NC3=O [PP2263],A (a compound having 10 or more and less than 20 is denoted as A),A (a compound having 10 or more and less than 20 is denoted as A)
CCO[C@@H]1C[C@H]2C(=O)NC3(CCC3)C(=O)N(C)[C@@H](C3CCCC3)C(=O)N(C)[C@H](C(=O)N(C)C)CC(=O)N(C)[C@H]3CCCCCCc4ccc(cc4)C[C@@H](C(=O)N(C)CC(=O)N[C@@H](CCc4ccc(C(F)(F)F)c(OC)c4)C(=O)N2C1)N1CC/C=C\C[C@@H](C1=O)N(C)C(=O)CN(C)C(=O)[C@H]([C@@H](C)CC)NC3=O [PP2264],AA (a compound having 20 or more is denoted as AA),A (a compound having 10 or more and less than 20 is denoted as A)
CC[C@H](C)[C@@H]1NC(=O)[C@H](CC(C)C)N(C)C(=O)C[C@@H](C(=O)N(C)C)N(C)C(=O)[C@H](C2CCCC2)N(C)C(=O)C2(CCCC2)NC(=O)[C@@H]2C[C@H](C)CN2C(=O)[C@H](CCc2cc(F)c(C(F)(F)F)c(F)c2)NC(=O)CN(C)C(=O)[C@H](Cc2ccc(C(F)(F)F)cc2)N2CC/C=C\C[C@@H](C2=O)N(C)C(=O)CN(C)C1=O [PP2268],A (a compound having 10 or more and less than 20 is denoted as A),A (a compound having 10 or more and less than 20 is denoted as A)
CCO[C@@H]1C[C@H]2C(=O)NC3(CCCC3)C(=O)N(C)[C@@H](C3CCCC3)C(=O)N(C)[C@H](C(=O)N(C)C)CC(=O)N(C)[C@@H](CC(C)C)C(=O)N[C@@H]([C@@H](C)CC)C(=O)N(C)CC(=O)N(C)[C@H]3C/C=C\CCN(C3=O)[C@@H](Cc3ccc(C(F)(F)F)cc3)C(=O)N(C)CC(=O)N[C@@H](CCc3cc(F)c(Cl)c(F)c3)C(=O)N2C1 [PP2269],A (a compound having 10 or more and less than 20 is denoted as A),A (a compound having 10 or more and less than 20 is denoted as A)
CCC[C@H]1C(=O)N[C@@H]([C@@H](C)CC)C(=O)N(C)CC(=O)N(C)[C@H]2C/C=C\CCN(C2=O)[C@@H](Cc2ccc(C(F)(F)F)cc2)C(=O)N(C)CC(=O)N[C@@H](CCc2ccc(C(F)(F)F)c(Cl)c2)C(=O)N2C[C@@H](C)C[C@H]2C(=O)NC2(CC(C)(C)C2)C(=O)N(C)[C@@H](C2CCCC2)C(=O)N(C)[C@H](C(=O)N(C)C)CC(=O)N1C [PP2270],B (a compound having 3 or more and less than 10 is denoted as B),B (a compound having 3 or more and less than 10 is denoted as B)
CC[C@@H]1C[C@H]2C(=O)NC3(CCCC3)C(=O)N(C)[C@@H](C3CCCC3)C(=O)N(C)[C@H](C(=O)N(C)CC)CC(=O)N(C)[C@@H](C)C(=O)N[C@@H]([C@@H](C)CC)C(=O)N(C)CC(=O)N(C)[C@H]3C/C=C\CCN(C3=O)[C@@H](Cc3ccc(C(F)(F)F)cc3)C(=O)N(C)CC(=O)N[C@@H](CCc3cc(F)c(C(F)(F)F)c(F)c3)C(=O)N2C1 [PP2271],A (a compound having 10 or more and less than 20 is denoted as A),A (a compound having 10 or more and less than 20 is denoted as A)
CCC[C@@H]1C[C@H]2C(=O)NC3(CCCC3)C(=O)N(C)[C@@H](C3CCCC3)C(=O)N(C)[C@H](C(=O)N(C)CC)CC(=O)N(C)[C@@H](C)C(=O)N[C@@H]([C@@H](C)CC)C(=O)N(C)CC(=O)N(C)[C@H]3C/C=C\CCN(C3=O)[C@@H](Cc3ccc(C(F)(F)F)cc3)C(=O)N(C)CC(=O)N[C@@H](CCc3cc(F)c(C(F)(F)F)c(F)c3)C(=O)N2C1 [PP2272],AA (a compound having 20 or more is denoted as AA),A (a compound having 10 or more and less than 20 is denoted as A)
